According to patent US20260200965A1, “NOVEL COMPOUND DERIVED FROM LORANTHUS TANAKAE AND ANTICANCER USE THEREOF” (KOREA INSTITUTE OF ORIENTAL MEDICINE, priority 2022, published 2026):
Several values for one entry are separate records, joined by “and”; a condition that tells them apart may be missing. Equal values may be shown once.

Columns and labels:
[1] = system: NHDF (normal human dermal fibroblast) cells; experiment: Toxicity test in normal cells (WST-8); assay type: cell-based
Protocol: NHDF (normal human dermal fibroblast; ATCC, USA) cells were seeded at about 5,000 cells per well in a 96-well plate and stabilized for 24 hours, and then treated with Lotanoside B isolated in Example 2 at various concentrations (0, 6.25, 12.5, 25, or 50 μM). As a control group, 5-FU (anticancer drug) and kaempferol were treated at various concentrations (5-FU: 0, 1.25, 2.5, 5 or 10 μM; kaempferol: 0, 5, 10, 20 or 40 μM). After culturing in a CO2 incubator for 48 hours, WST-8 ((2-(2-methoxy-4-nitrophenyl)-3-(4-nitrophenyl)-5-(2,4-disulfophenyl)-2H-tetrazolium, monosodium salt) reagent was treated, and after culturing for 2 hours, the optical density (OD) was measured at a wavelength of 450 nm by using a microplate reader.

[2] = system: mouse skin epithelial cell JB6; experiment: EGF-induced cell transformation colony growth inhibition (soft agar); assay type: cell-based; settings: EGF 10 ng/ml, JB6 colonies, about 2 weeks
Protocol: (§1) The carcinogenicity inhibitory effect of the extract of Loranthus tanakae Franch. & Sav was determined in a carcinogenic model in which the mouse skin epithelial cell JB6 (ATCC, USA) was treated with EGF, which is a growth factor that increases cancer cell occurrence, and TPA, which is a tumor-promoting factor, to induce malignant transformation.
(§2) Specifically, agar mix (0.5%) including BME, FBS, glutamine, gentamicin, PBS and 1.25% agar, EGF (10 ng/ml) or TPA (10 ng/ml) and the 70% ethanol extract of Loranthus tanakae Franch. & Sav prepared in Example 1-1 were mixed, dispensed into 6-well plates at 3 mL per well, and solidified (bottom agar). Mouse skin epithelial cells JB6 (ATCC, USA) were detached by trypsin treatment, washed with 1×PBS, and resuspended in 10% BME to determine the cell number. 8,000 cells were prepared per well, and agar mix (0.3%), EGF or TPA and the 70% ethanol extract of Loranthus tanakae Franch. & Sav prepared in Example 1-1 were mixed, dispensed into 1 mL per well, and solidified (upper agar). After culturing in a CO2 incubator for about 2 weeks, colonies were photographed under a microscope, and the number of colonies was counted by using Image-Pro Plus software (v.6.0) program (Media Cybernetics, Silver Spring, MD, USA).

[3] = system: mouse skin epithelial cell JB6; experiment: TPA-induced cell transformation colony growth inhibition (soft agar); assay type: cell-based; settings: TPA 10 ng/ml, JB6 colonies, about 2 weeks
Protocol: as §1, §2

[4] = system: SKMEL-5 melanoma cancer cells; experiment: Cancer cell growth inhibition (WST-8 assay); assay type: cell-based
Protocol: SKMEL-5 melanoma cancer cells (ATCC, USA) were dispensed into a 96-well plate at 1,000 cells per well and stabilized for 24 hours, and then treated with Lotanoside B at different concentrations (0, 6.25, 12.5, 25 or 50 μM). As a control group, 5-FU (anticancer drug) and kaempferol were treated at different concentrations, respectively (5-FU: 0, 1.25, 2.5, 5 or 10 μM; kaempferol: 0, 5, 10, 20 or 40 μM). Afterwards, the cells were cultured in a CO2 incubator for 72 hours, and then treated with WST-8 ((2-(2-methoxy-4-nitrophenyl)-3-(4-nitrophenyl)-5-(2,4-disulfophenyl)-2H-tetrazolium, monosodium salt) reagent, and after culturing for about 2 hours, the optical density (OD) was measured at a wavelength of 450 nm by using a microplate reader.

[5] = system: DMBA/TPA-induced skin cancer; assay type: in vivo, ICR mice
Protocol: Female ICR mice (5 weeks old, 20~25 g) were purchased as experimental animals from Samtaco Co., Ltd. (Osan, Korea), and were provided with water and food freely in a cage equipped with a constant temperature and humidity device. After a one-week adaptation period, the hair on the back of the mice was removed, and they were divided into six groups as shown in Table 1 and raised for 20 weeks.
When DMBA (7,12-Dimethylbenz[a]anthracene), which induces carcinogenesis, is treated to the depilated area and TPA (12-Otetradecanoylphorbol-13-acetate, promoter) is continuously applied, skin inflammation and skin cancer are induced. […] TPA, Lotanoside B and 5-FU were diluted in acetone and topically treated to the back area twice a week, and the number and size of the tumors formed and the weight of the mice were measured.

[6] = 0.1 and 1 μmole topical twice a week, 20 weeks, vs DMBA/TPA group, reduction greater at 1 μmole

## O=c1c(O)c(-c2ccc(O)cc2)oc2cc(O)cc(O)c12 [kaempferol]
[1]; NHDF, 48 hours, WST-8
  concentration at which toxicity begins to show: 40 µM

## COc1cc(O)c2c(=O)c(OC3OC(CO)C(O)C(O)C3O)c(-c3ccc(O)c(O)c3)oc2c1 (stereo not drawn) [rhamnetin-3-O-glucoside]
[2]; test concentration not given
  inhibition rate compared to the EGF treatment group: 92.9%
[3]; test concentration not given
  inhibition rate compared to the TPA treatment group: 76.2% and 74.2%

## COc1cc(O)c2c(=O)c(OC3OC(C)C(O)C(O)C3O)c(-c3ccc(OC4OC(COC(=O)/C=C/c5ccccc5)C(O)C(O)C4O)c(O)c3)oc2c1 (stereo not drawn) [Lotanoside B, rhamnetin-3-O-rhamnoside-4′-O-(6″-O-cinnamoyl)-glucoside]
[2]; Mus musculus, Epithelial cell, 336 h, 50 μM, read-out: inhibition rate compared to the EGF treatment group
  inhibition at 50 µM: 66.7%
[3]; 50 μM
  inhibition rate compared to the TPA treatment group: 76.2%
[3]; Mus musculus, Epithelial cell, 336 h, 50 μM, read-out: inhibition rate compared to the TPA treatment group
  inhibition at 50 µM: 74.2%
[1]; human, 48 h
  concentration at which toxicity begins to show: > 50 µM
[4]; Homo sapiens, SK-MEL-5, SKMEL-5, 72 hours, WST-8
  IC50: 32.1 µM
[4]; SKMEL-5, 72 hours, WST-8
  cancer cell growth inhibition effect compared to kaempferol: superior cancer cell growth inhibition effect compared to kaempferol
[4]; SKMEL-5, at a concentration that did not exhibit toxicity
  cancer cell growth inhibition effect: 78.5%
[5]; [6]
  number of tumors: decreased
  tumor area: decreased
  tumor incidence: decreased
[5]; 5-FU 0.1 μmole as positive control
  effect in inhibiting skin cancer formation compared to 5-FU: superior effect in inhibiting skin cancer formation compared to 5-FU

## O=c1[nH]cc(F)c(=O)[nH]1 [5-FU, fluorouracil]
[1]; human, 48 h
  concentration at which toxicity begins to show: 10 µM
